According to ChEMBL document CHEMBL4732141, “Imidazopyridine-Based 5-HT Receptor Neutral Antagonists: Impact of N-Benzyl and N-Phenylsulfonyl Fragments on Different Receptor Conformational States” (J Med Chem, 2021):
Active and inactive are the calls of the source. The rule behind the calls is not given here.

Tests used:
[1] = Stability in deuterated dimethyl sulfoxide; format: physicochemical
[2] = Stability in pH 1 buffer assessed as compound decomposition after 1 hr; format: physicochemical; conditions: pH 1, 1 h
[3] = molecular target: 5-hydroxytryptamine receptor 2A (Homo sapiens, UniProt P28223); assay: Displacement of […] from human 5HT2A expressed in HEK293 cell membranes incubated for 1 hr by micro-beta plate reader based analysis; set-up: species or system Cell membrane
[4] = molecular target: T1, 5-hydroxytryptamine receptor 1A (Homo sapiens, UniProt P08908); assay: Displacement of […] from human 5HT1A expressed in HEK293 cell membranes incubated for 1 hr by micro-beta plate reader based analysis; set-up: species or system Cell membrane
T1 sequence (P08908 whole entry): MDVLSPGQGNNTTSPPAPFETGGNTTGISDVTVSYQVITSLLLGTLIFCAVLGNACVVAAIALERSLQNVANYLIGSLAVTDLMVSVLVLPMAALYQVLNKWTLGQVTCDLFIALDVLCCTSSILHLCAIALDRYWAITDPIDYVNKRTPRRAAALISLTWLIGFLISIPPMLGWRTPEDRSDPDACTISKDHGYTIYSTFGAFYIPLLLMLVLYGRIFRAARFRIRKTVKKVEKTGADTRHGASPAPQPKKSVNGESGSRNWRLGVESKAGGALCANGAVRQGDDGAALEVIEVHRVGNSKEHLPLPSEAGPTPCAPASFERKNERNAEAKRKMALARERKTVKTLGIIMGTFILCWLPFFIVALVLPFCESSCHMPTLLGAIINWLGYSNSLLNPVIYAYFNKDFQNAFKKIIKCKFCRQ

[5] = Toxicity in mouse C8-D1A astrocytes assessed as reduction in cell viability at […] by MTT assay; format: cell-based; conditions: astrocyte, dose 0.25 µM
[6] = test system: Astrocyte; assay: Glio-protective activity in mouse C8-D1A astrocytes assessed as reduction in DOX-induced toxicity at […] pre-incubated for 5 hrs before doxorubicin addition and measured after 3 hrs by LDH release assay; format: functional, cell-based; conditions: dose 0.25 µM
[7] = test system: Astrocyte; assay: Glio-protective activity in mouse C8-D1A astrocytes assessed as reduction in 6-OHDA-induced toxicity at […] pre-incubated for 12 hrs before doxorubicin addition and measured after 24 hrs by MTT assay; format: functional, cell-based; conditions: dose 0.25 µM, time 36.0 hrs
[8] = test system: Astrocyte; assay: Glio-protective activity in mouse C8-D1A astrocytes assessed as reduction in 6-OHDA-induced toxicity at […] pre-incubated for 12 hrs before doxorubicin addition and measured after 24 hrs by LDH assay; format: functional, cell-based; conditions: dose 0.25 µM, time 36.0 hrs
[9] = test system: Astrocyte; assay: Glio-protective activity in mouse C8-D1A astrocytes assessed as reduction in DOX-induced toxicity at […] pre-incubated for 5 hrs before doxorubicin addition and measured after 3 hrs by MTT assay; format: functional, cell-based; conditions: dose 0.25 µM, time 8.0 hrs
[10] = Toxicity in mouse C8-D1A astrocytes assessed as reduction in cell viability by MTT assay; format: cell-based, Astrocyte
[11] = Stability in pH 1 buffer assessed as compound decomposition after 24 hrs; format: physicochemical; conditions: pH 1, 24 h
[12] = molecular target: T2, alpha-1A adrenergic receptor (Homo sapiens, UniProt P35348); assay: Inhibition of human alpha1A adrenergic receptor at 1 uM relative to control
T2 sequence (P35348 whole entry): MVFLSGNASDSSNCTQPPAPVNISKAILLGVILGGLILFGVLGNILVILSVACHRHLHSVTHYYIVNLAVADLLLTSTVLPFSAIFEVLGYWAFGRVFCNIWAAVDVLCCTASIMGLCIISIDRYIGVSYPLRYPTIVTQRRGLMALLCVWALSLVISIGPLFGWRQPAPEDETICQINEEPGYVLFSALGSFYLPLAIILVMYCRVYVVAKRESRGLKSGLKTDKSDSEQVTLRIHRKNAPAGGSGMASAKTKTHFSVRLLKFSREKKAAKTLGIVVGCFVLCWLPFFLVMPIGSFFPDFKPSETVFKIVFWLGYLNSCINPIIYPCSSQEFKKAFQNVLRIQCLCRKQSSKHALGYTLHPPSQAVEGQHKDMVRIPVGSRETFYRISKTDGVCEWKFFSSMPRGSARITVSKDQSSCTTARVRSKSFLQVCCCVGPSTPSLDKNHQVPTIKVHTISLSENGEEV

[13] = molecular target: T1, 5-hydroxytryptamine receptor 1A; assay: Agonist activity at human 5HT1A expressed in HEK293 cells assessed as stimulation of cAMP production incubated for 30 mins by LANCE ultra cAMP detection assay; format: cell-based
[14] = molecular target: histamine H1 receptor (HRH1) (Homo sapiens, UniProt P35367); assay: Inhibition of human HRH1 at 1 uM relative to control
[15] = molecular target: beta-1 adrenergic receptor (Homo sapiens, UniProt P08588); assay: Inhibition of human beta1 adrenergic receptor at 1 uM relative to control
[16] = molecular target: hERG (KCNH2) (Homo sapiens, UniProt Q12809); assay: Inhibition of human ERG at 1 uM relative to control
[17] = molecular target: T3, muscarinic acetylcholine receptor M1 (Homo sapiens, UniProt P11229); assay: Inhibition of human muscarinic receptor 1 at 1 uM relative to control
T3 sequence (P11229 whole entry): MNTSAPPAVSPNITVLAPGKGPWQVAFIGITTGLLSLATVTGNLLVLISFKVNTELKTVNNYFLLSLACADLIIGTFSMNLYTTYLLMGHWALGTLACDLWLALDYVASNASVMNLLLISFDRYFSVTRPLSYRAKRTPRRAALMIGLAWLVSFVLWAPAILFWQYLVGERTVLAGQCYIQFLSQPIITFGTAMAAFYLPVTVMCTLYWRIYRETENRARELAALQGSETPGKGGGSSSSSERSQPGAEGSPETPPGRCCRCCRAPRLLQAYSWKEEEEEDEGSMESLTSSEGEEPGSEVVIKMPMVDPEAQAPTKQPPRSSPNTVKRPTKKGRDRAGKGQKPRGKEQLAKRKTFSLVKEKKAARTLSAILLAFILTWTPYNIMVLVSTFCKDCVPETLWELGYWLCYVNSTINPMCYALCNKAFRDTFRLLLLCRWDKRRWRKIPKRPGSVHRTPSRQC

[18] = molecular target: T1, 5-hydroxytryptamine receptor 1A; assay: Antagonist activity at human 5HT1A expressed in HEK293 cells assessed as reduction in forskolin-induced stimulation of cAMP production incubated for 30 mins by LANCE ultra cAMP detection assay; format: cell-based; conditions: hek293, 0.5 h
[19] = Effect on neurite growth in […] NG108-15 cells expressing GFP-tagged 5-HT6 receptor assessed as neurite length at 1 uM incubated for 24 hrs by epifluorescence microscopy (reference value: 37.20 +/- 1.53 micrometer); format: functional
[20] = molecular target: 5-hydroxytryptamine receptor 6 (Homo sapiens, UniProt P50406); assay: Binding affinity to 5HT6R (unknown origin)
[21] = Neurotoxicity in human SH-SY5Y cells assessed as reduction in cell viability incubated for 24 hrs by MTT assay; format: toxicity, cell-based

Chain of 5-hydroxytryptamine receptor 2A (P28223 whole entry): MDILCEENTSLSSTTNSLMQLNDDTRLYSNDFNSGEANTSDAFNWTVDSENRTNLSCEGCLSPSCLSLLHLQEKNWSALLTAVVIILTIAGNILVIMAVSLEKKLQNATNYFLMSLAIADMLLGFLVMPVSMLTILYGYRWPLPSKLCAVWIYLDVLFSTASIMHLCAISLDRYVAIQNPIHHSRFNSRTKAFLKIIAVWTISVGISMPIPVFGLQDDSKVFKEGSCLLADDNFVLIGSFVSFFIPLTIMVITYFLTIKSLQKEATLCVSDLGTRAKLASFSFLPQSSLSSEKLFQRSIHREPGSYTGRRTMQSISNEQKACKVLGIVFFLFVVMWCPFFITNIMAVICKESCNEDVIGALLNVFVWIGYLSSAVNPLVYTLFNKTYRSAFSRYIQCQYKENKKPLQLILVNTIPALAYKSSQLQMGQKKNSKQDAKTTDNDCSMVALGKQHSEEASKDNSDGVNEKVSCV
Chain of histamine H1 receptor (HRH1) (P35367 whole entry): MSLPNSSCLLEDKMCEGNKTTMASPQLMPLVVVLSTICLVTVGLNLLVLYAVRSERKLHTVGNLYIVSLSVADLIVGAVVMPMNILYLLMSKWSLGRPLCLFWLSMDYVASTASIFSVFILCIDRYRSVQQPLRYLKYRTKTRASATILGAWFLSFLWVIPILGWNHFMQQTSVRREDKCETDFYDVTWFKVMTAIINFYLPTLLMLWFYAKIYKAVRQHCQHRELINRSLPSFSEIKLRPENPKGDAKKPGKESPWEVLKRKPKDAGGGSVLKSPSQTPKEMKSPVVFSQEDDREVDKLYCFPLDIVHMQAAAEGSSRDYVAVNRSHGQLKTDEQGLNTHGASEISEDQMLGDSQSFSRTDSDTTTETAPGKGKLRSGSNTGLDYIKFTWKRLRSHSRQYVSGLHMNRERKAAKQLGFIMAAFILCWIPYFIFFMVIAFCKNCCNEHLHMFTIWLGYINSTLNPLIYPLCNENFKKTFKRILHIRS
Chain of hERG (KCNH2) (Q12809 whole entry): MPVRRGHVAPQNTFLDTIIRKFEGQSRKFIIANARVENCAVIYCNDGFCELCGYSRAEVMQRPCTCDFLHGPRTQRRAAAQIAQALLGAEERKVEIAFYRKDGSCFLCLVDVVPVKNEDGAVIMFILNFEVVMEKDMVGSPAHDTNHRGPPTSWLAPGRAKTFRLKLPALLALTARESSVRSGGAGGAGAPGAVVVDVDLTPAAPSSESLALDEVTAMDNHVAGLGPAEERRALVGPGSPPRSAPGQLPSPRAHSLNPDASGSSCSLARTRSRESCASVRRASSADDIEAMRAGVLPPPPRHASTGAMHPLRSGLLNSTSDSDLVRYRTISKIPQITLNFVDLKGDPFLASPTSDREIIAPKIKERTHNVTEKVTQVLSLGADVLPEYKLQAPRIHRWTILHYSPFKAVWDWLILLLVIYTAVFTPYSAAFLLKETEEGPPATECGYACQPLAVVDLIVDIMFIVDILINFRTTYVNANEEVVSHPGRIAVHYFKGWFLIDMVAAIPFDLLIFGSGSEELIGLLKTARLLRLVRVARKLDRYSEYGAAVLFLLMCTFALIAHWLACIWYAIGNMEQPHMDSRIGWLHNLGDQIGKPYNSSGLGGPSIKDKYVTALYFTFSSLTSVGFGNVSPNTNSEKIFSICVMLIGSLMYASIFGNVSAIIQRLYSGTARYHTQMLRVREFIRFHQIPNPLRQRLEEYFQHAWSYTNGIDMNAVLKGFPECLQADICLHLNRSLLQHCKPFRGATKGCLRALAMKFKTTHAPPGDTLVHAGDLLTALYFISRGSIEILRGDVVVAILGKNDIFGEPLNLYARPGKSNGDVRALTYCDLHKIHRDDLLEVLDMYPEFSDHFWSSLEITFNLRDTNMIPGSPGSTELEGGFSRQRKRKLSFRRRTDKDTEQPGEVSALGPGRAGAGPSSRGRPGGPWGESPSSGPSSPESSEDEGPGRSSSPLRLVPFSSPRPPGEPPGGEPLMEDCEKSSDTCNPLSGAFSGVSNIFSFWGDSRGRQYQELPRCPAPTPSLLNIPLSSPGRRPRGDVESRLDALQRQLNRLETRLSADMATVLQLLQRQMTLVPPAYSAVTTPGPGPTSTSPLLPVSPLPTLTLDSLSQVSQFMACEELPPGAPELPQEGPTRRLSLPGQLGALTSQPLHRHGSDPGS
Chain of beta-1 adrenergic receptor (P08588 whole entry): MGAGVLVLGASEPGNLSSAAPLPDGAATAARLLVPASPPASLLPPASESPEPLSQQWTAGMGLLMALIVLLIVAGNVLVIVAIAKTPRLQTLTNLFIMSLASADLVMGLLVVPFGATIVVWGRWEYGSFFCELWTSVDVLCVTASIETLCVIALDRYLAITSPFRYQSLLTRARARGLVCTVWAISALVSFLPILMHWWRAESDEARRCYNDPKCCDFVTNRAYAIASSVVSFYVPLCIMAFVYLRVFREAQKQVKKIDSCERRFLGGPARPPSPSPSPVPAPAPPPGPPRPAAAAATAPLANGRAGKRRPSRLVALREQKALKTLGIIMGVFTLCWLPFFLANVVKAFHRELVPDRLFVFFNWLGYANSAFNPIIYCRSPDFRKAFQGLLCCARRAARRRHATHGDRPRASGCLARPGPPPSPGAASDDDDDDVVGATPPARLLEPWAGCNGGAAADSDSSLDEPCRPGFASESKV
Chain of 5-hydroxytryptamine receptor 6 (P50406 whole entry): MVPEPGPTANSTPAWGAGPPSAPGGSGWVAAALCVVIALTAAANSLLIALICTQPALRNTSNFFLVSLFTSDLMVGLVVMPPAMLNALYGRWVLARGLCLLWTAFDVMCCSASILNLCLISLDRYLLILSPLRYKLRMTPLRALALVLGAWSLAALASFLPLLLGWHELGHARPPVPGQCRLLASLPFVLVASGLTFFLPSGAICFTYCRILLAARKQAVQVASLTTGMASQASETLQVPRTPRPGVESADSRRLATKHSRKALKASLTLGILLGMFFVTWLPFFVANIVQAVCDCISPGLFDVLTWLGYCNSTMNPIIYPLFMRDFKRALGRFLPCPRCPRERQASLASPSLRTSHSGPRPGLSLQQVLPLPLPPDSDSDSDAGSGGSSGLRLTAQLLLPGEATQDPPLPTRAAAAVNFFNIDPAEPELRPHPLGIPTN

Row | Stabilty [1] | Stabilty [2] | SMILES | further results
1 | Unstable | Stable | O=S(=O)(c1ccccc1)n1cnc2c(N3CCNCC3)nccc21 | 
2 | Unstable | Stable | COc1cccc(S(=O)(=O)n2c(-c3ccccc3)nc3c(N4CCNCC4)nccc32)c1 | 
3 | Unstable | Stable | O=S(=O)(c1cccc(F)c1)n1cnc2c(N3CCNCC3)nccc21 | 
4 | Unstable | Stable | O=S(=O)(c1ccccc1)n1c(-c2ccccc2)nc2c(N3CCNCC3)nccc21 | 
5 | Unstable | Stable | O=S(=O)(c1cccc(F)c1)n1c(-c2ccccc2)nc2c(N3CCNCC3)nccc21 | 
6 | Unstable | Stable | CC(C)c1nc2c(N3CCNCC3)nccc2n1S(=O)(=O)c1cccc(F)c1 | 
7 | Unstable | Stable | COc1cccc(S(=O)(=O)n2cnc3c(N4CCNCC4)nccc32)c1 | 
8 |  |  | COc1ccc(NS(=O)(=O)c2ccc(I)cc2)cc1N1CCN(C)CC1 | Activity [5]: Non-Toxic; Activity [6]: inactive; Activity [7]: inactive; Activity [8]: inactive; Activity [9]: inactive; CC50 [10]: > 1 µM
9 | Unstable | Stable | COc1cccc(S(=O)(=O)n2c(C(C)C)nc3c(N4CCNCC4)nccc32)c1 | Stabilty [11]: Stable
10 |  | Stable | O=S(=O)(c1ccccc1)c1cnc2c(N3CCNCC3)cccc2c1 [INTEPIRDINE] | Activity [5]: Non-Toxic; CC50 [10]: > 1 µM; Activity [19]: 12.06 um
11 | Unstable | Stable | CC(C)c1nc2c(N3CCNCC3)nccc2n1S(=O)(=O)c1ccccc1 | 
12 |  |  | Cc1nc2c(N3CCNCC3)cccc2n1S(=O)(=O)c1ccccc1 [PF-05212377] | Ki [20]: 0.0005 µM
13 |  |  | COc1cccc2c1C(=O)c1c(O)c3c(c(O)c1C2=O)C[C@@](O)(C(=O)CO)C[C@@H]3O[C@H]1C[C@H](N)[C@H](O)[C@H](C)O1 [DOXORUBICIN] | IC50 at 24 h [21]: 2.3 µM

Row | SMILES | Stabilty [1] | Stabilty [2] | further results
14 | O=S(=O)(c1cccc(Cl)c1)n1c(-c2ccccc2)nc2c(N3CCNCC3)nccc21 | Unstable | Stable | Ki [3]: 0.41 µM; Ki [4]: 1.09 µM
15 | CCc1nc2c(N3CCNCC3)nccc2n1S(=O)(=O)c1cccc(F)c1 | Unstable | Stable | Ki [3]: 0.264 µM; Ki [4]: 0.829 µM
16 | CCc1nc2c(N3CCNCC3)nccc2n1S(=O)(=O)c1cccc(Cl)c1 | Unstable | Stable | Ki [3]: 0.562 µM; inhibition at 1 µM [12]: 22%; Ki [4]: 0.146 µM; EC50 [13]: > 20 µM; inhibition at 1 µM [14]: 6%; inhibition at 1 µM [15]: 10%; inhibition at 1 µM [16]: 12%; inhibition at 1 µM [17]: 4%; Activity [18]: Not Active
17 | O=S(=O)(c1cccc(Cl)c1)n1cnc2c(N3CCNCC3)nccc21 | Unstable | Stable | Ki [3]: 0.355 µM; Ki [4]: 0.285 µM
18 | CC(C)c1nc2c(N3CCNCC3)nccc2n1S(=O)(=O)c1cccc(Cl)c1 | Unstable | Stable | Ki [3]: 0.239 µM; Ki [4]: 0.307 µM
